Data: US20230183265A1, “Crystal Form of Macrocyclic Tyrosine Kinase Inhibitor and Preparation Method therefor” (SHANDONG XUANZHU PHARMA CO., LTD., priority 2020, published 2023)

Columns and labels:
[1] = test system: xenograft tumor of BaF3 LMNA-NTRK1-G595R stably transfected cell line; test: Efficacy study on BaF3 LMNA-NTRK1-G595R stable cell strain subcutaneous xenograft model; type: in vivo, mouse (NOD-SCID); details: bid, p.o., 7 days
Protocol: Test substance: the compound represented by Formula (I), prepared according to the method in Embodiment 1.
A BaF3LMNA-NTRK1-G595R stably transfected cell line resuspended in a RPM11640 serum-free medium was inoculated subcutaneously on a right scapula of a mouse (nonobese diabetic-severe combined immunodeficiency disease (NOD-SCID)) at 1×10^6 cells/mouse (0.1 ml/mouse).
3.2 Grouping Administration
While the average tumor volume was about 500 mm^3, it was randomly divided into a vehicle group, a compound represented by Formula (I) (10/5/3/1 mg/kg, bid) group and a LOXO-195 group (30/10/3 mg/kg, bid).
3.3 Experimental Evaluation Index
1) Tumor growth inhibition rate TGI (%) • TGI (%)=(1−T/C)×100%
2) Tumor volume ratio of Treatment group/Control group TIC (%) • TIC (%)=TRTV/CRTV×100% • RTV=Vt/V0, herein Vt is the tumor volume on the t-th day after grouping, and V0 is the tumor volume on the day of grouping; TRTV: the average relative tumor volume in the administration group; and CRTV: the average relative tumor volume in the vehicle control group.

[2] = Hygroscopicity test of crystal form II; type: physicochemical
Protocol: 2. Hygroscopicity Test of Crystal Form II
Test sample: the crystal form II of the compound represented by Formula (I).
Test method: it was determined according to the general rule 9103 (guidelines of drug hygroscopicity test) of the Chinese Pharmacopoeia (2015 Edition, Part IV): the test sample was placed under the condition of 25° C. and RH80% for 24 h (a sample bottle was placed under this condition for 24 h in advance), and results were shown in Table 2: […]

[3] = Stability test of crystal form II; type: physicochemical
Protocol: Test sample: the crystal form II of the compound represented by Formula (I)
Test method: a suitable amount of the test samples was respectively weighed, and the appearance, moisture, content, related substances, XRD, and DSC of the test samples were investigated after being placed under the following conditions. The placing conditions were as follows.
Under the conditions of 60° C.±2° C., or of 25° C. RH92.5%, it was placed for 10 days, opened/closed, and a sample was taken for testing on the 10th day (the opened package is a flat weighing bottle, and the closed package is a low-density polyethylene bag or low-density polyethylene bag+composite film bag.
Under the conditions of 40° C. RH75%, it was placed for one month, opened/closed, and a sample was taken for testing after one month (the opened package is the flat weighing bottle, and the closed package is the low-density polyethylene bag or low-density polyethylene bag+composite film bag).
Moisture: it was determined according to the first 2 coulometric titration of the general rule 0832 (moisture determination) of the Chinese Pharmacopoeia (2015 Edition, Part IV).
XRD: it was determined according to the general rule 0451 (X-ray diffraction) of the Chinese Pharmacopoeia (2015 Edition, Part IV).
DSC: it was determined at a heating rate of 3° C./min, from 100° C. to 200° C.
Related substances and content: it was determined according to the general rule 0512 (HPLC) of the Chinese Pharmacopoeia (2015 Edition, Part IV).

[4] = 25° C. RH 92.5% 10 days, Opened
[5] = 25° C. RH 92.5% 10 days, Polyethylene bag
[6] = 25° C. RH 92.5% 10 days, Polyethylene bag + composite film bag
[7] = 40° C. RH 75% 1M, Polyethylene bag
[8] = 40° C. RH 75% 1M, Polyethylene bag + composite film bag
[9] = 60° C. 10 days, Polyethylene bag
[10] = 60° C. 10 days, Polyethylene bag + composite film bag

With `C[C@@H]1CCc2ncc(F)cc2[C@H]2CCCN2c2ccn3ncc(c3n2)C(=O)N1` [LOXO-195, reference compound] the T/C ([1]; experiment 1, 3 mg/Kg) was 93.6%, the TGI ([1]; experiment 1, 3 mg/Kg) was 6.4% and the T/C ([1]; experiment 1, 10 mg/Kg) was 63.1%. For the same compound, the TGI ([1]; experiment 1, 10 mg/Kg) was 36.9%, the T/C ([1]; experiment 2, 30 mg/Kg) was 0% and the TGI ([1]; experiment 2, 30 mg/Kg) was 100%.
In the case of `C[C@@H]1COc2ncc(F)cc2[C@H]2CCCN2c2ccc3ncn(c3n2)C(=O)N1` [Crystal form II, (2^2R,6R)-3^5-fluoro-6-methyl-1^3H-4-oxa-7-aza-1(5,3)-imidazo[4,5-b]pyridina-3(3,2)-pyridina-2(1,2)-p yrrolidinacyclooctaphan-8-one], the “Moisture absorption weight gain” value ([2]; 25° C. RH80% placing for 1 day) is reported as 0.002%, the “hygroscopicity (in words)” value ([2]; 25° C. and RH80% for 24 h) is reported as “no or almost no hygroscopicity” and the Appearance ([3]; 0 day) is reported as “Off-white”. For the same compound, the Content ([3]; 0 day) was 100.4%, the DSC ([3]; 0 day) was 162.32 °C and the Moisture ([3]; 0 day) was 0.088%. For the same compound, the Total related substance ([3]; 0 day) was 0.09%, the Appearance [3, 4] was “Off-white” and the Content [3, 4] was 99.6%. It also gave a DSC [3, 4] of 162.23 °C, a Moisture [3, 4] of 0.13% and a Total related substance [3, 4] of 0.11%. The XRD [3, 4] was “Same”, the Appearance [3, 5] was “Off-white” and the Content [3, 5] was 99.5%. For the same compound, the DSC [3, 5] was 162.23 °C, the Moisture [3, 5] was 0.11% and the Total related substance [3, 5] was 0.10%. The XRD [3, 5] was “Same”, the Appearance [3, 6] was “Off-white” and the Content [3, 6] was 99.3%. The DSC [3, 6] was 162.27 °C, the Moisture [3, 6] was 0.11% and the Total related substance [3, 6] was 0.11%. For the same compound, the XRD [3, 6] was “Same”, the Appearance ([3]; 40° C. RH 75% 1M, Opened) was “Off-white” and the Content ([3]; 40° C. RH 75% 1M, Opened) was 100.8%. The DSC ([3]; 40° C. RH 75% 1M, Opened) was 162.29 °C, the Moisture ([3]; 40° C. RH 75% 1M, Opened) was 0.026% and the Total related substance ([3]; 40° C. RH 75% 1M, Opened) was 0.10%. The XRD ([3]; 40° C. RH 75% 1M, Opened) was “Same”, the Appearance [3, 7] was “Off-white” and the Content [3, 7] was 101.0%. It also gave a DSC [3, 7] of 162.18 °C, a Moisture [3, 7] of 0.033% and a Total related substance [3, 7] of 0.10%. The XRD [3, 7] was “Same”, the Appearance [3, 8] was “Off-white” and the Content [3, 8] was 101.0%. For the same compound, the DSC [3, 8] was 162.35 °C, the Moisture [3, 8] was 0.036% and the Total related substance [3, 8] was 0.10%. For the same compound, the XRD [3, 8] was “Same”, the Appearance ([3]; 60° C. 10 days, Opened) was “Off-white” and the Content ([3]; 60° C. 10 days, Opened) was 99.8%. For the same compound, the DSC ([3]; 60° C. 10 days, Opened) was 162.24 °C, the Moisture ([3]; 60° C. 10 days, Opened) was 0.18% and the Total related substance ([3]; 60° C. 10 days, Opened) was 0.11%. For the same compound, the XRD ([3]; 60° C. 10 days, Opened) was “Same”, the Appearance [3, 9] was “Off-white” and the Content [3, 9] was 100.0%. For the same compound, the DSC [3, 9] was 162.26 °C, the Moisture [3, 9] was 0.15% and the Total related substance [3, 9] was 0.11%. The XRD [3, 9] was “Same”, the Appearance [3, 10] was “Off-white” and the Content [3, 10] was 99.7%. For the same compound, the DSC [3, 10] was 162.23 °C, the Moisture [3, 10] was 0.13% and the Total related substance [3, 10] was 0.10%. The XRD [3, 10] was “Same” and the “stability of the crystal form (in words)” value ([3]; 60° C. 10 days, 25° C. RH92.5% 10 days, 40° C. RH75% 1 month, opened/closed package) was “the stability of the crystal form is good”.
